Laboratory results from patent US20080182978A1, “ANTI-NGF ANTIBODIES AND METHODS USING SAME” (RINAT NEUROSCIENCE CORP, priority 2002, published 2008).

Assays:
Type in all cases: in vivo, rat
[1] = system: complete Freund's adjuvant (CFA)-induced chronic arthritis; test: CFA arthritis rats, paw volume (plethysmometer); conditions: for change of paw volume compared to vehicle-treated arthritic group: E3 1 mg/kg or 911 10 mg/kg i.v. D14+D19, indomethacin 3 mg/kg/day p.o.; for paw volume (mean of right and left hindpaw): arthritic rats
Procedure: Five groups of 10 animals (5-weeks old male Lewis rats-LEWIS Lew/Ico, from Charles River Laboratories—Belgium) each were included in this study: Group 1: non arthritic rats/saline (vehicle), i.v. bolus, n=10; Group 2: arthritic rats/saline (vehicle), i.v. bolus, n=10; Group 3: arthritic rats/Indomethacin 3 mg/kg, p.o daily over 10 days, n=10; […]; Group 5: arthritic rats/911, 10 mg/kg, i.v. bolus, n=10. The doses were expressed in terms of free active substance (mg/kg). E3 and 911 were extemporaneously prepared in saline from the stock solution to the desired concentration. […]. All diluted solutions (before i.v. injection) were sterilized using a sterile filter unit of 0.20.μm. pH and osmolarity values of diluted solutions were measured before each i.v. injection. Before the first i.v., osmolarity (mosm/L) for saline, E3, and 911 were 278, 269, and 308 respectively; pH for saline, E3, and 911 were 5.93, 6.76, 6.71 respectively. Before the second i.v., osmolarity (mosm/L) for saline, E3, and 911 were 280, 270, and 309 respectively; pH for saline, E3, and 911 were 5.86, 6.72, and 6.59 respectively.
E3 or 911 or saline were administered by i.v. bolus injection on Day 14 and Day 19 after arthritis induction in a coded and random order with a volume of 5 mL/kg. The non arthritic group was given by i.v. bolus injection of saline on Day 14 and Day 19 with a volume of 5 mL/kg. Indomethacin was extemporaneously prepared in 1% methylcellulose. Indomethacin was administered by oral route (p.o.) once daily over 10 days from Day 14 to Day 23 after arthritis induction in a coded and random order with a volume of 10 mL/kg.
The right and left hindpaw volume of each rat (arthritic and non arthritic rats) was measured using a plethysmometer. The measurements were performed at the following times (after induction of arthritis): Day 14 (before i.v. bolus or p.o. administration); and Day 24 (5 days after the last i.v. bolus injection or 24 h after the last p.o. administration). All measurements were performed between 9:00 and 12:00 am. All the data were collected and stored by the WinDas software.
(§1) All results were reported as Mean ±S.E.M. of 10 rats in each group at each time point. Paw volume was expressed in ml calculated from the mean value of the right and left paw volume. Arthritis index was calculated from the sum of the score obtained for each of the 4 paws. The nociceptive response was evaluated by the intensity of the level of vocalization recorded for each animal (mean of 4 values: 2 times/paw) in mV. The percentage inhibition of the nociceptive response was calculated from the mean value of the vehicle-treated arthritic group [(mean value of vehicle-treated arthritic group−mean value of treated arthritic group/mean value of vehicle-treated arthritic group)*100]. Body weight was expressed in grams. Hindpaws (left and right) weight was expressed in grams. Cytokine levels (IL-6, IL-1β, TNF-α and TGF-β1) of each hind paw was expressed in pg/ml. Circulating levels of TGF-β1 was expressed in pg/ml. Radiological index for each parameter (demineralization, erosions, periostal reaction, soft tissue damage, space joint, osteogenesis deformity) and total radiological index (total score) were calculated from the sum of the scores obtained for each parameter. The inter-group significances of the deviations between the values of vehicle-treated group (arthritic rats) and vehicle-treated group (non arthritic rats) were assessed by the Student t test or Mann-Whitney Rank Sum Test when equal variance or normality test failed. The inter-group significances of the deviations between the values of vehicle-treated group (arthritic rats) and E3- and 911- and Indomethacin-treated groups were assessed by the 1-way analysis of variance ANOVA followed by the non-paired Dunnett t test. A probability of P<0.05 was considered as significant. All statistical analysis was performed by the Sigmastat™ software.

[2] = CFA arthritis rats, hematological parameters; conditions: for effect on blood parameters compared to vehicle-treated arthritic group: E3 1 mg/kg or 911 10 mg/kg i.v. D14+D19, indomethacin 3 mg/kg/day p.o. 10 days; for Hematocrit / Hemoglobin / Platelets / Red blood cells / White blood cells: arthritic rats, E3 1 mg/kg or 911 10 mg/kg i.v. D14+D19, indomethacin 3 mg/kg p.o. over 10 days, D24
Procedure: On Day 24 (after paw volume and arthritis index measurements and test vocalization), under general anaesthesia using isoflurane (in a mixture of oxygen and nitrous oxide), the blood samples (about 800-1000 μl) was collected by capillary action with a micropipette from retroorbital sinus.
Blood collection for hematological parameters (groups 1-2-3-4-5: 50 vials): A part of blood sample was collected in tubes containing K3—EDTA (at least 100 μL). The determination of parameters were performed on the day of the collection and the samples were not stored. The hematological parameters including red blood cells, white blood cells, platelets, hemoglobin, hematocrit were measured with a hematology cell counter (D 24). Some hematological parameters were not measured due to the clotted samples (vehicle-freated non arthritic rat: #10; E3-treated arthritic rats: #59, #67; 911-treated arthritic rats: #16).

[3] = system: IL-6, IL-1β, TNF-α and TGF-β1; test: CFA arthritis rats, paw cytokine levels (ELISA); conditions: D24; for left paw IL-1β level / left paw IL-6 level / left paw TGF-β1 level / left paw TNF-α level / right paw IL-1β level / right paw IL-6 level / right paw TGF-β1 level / right paw TNF-α level: arthritic rats, E3 1 mg/kg or 911 10 mg/kg i.v. D14+D19, indomethacin 3 mg/kg p.o.
Procedure: On Day 24 (5 days after the last i.v. bolus injection or 24 hours after the last p.o. administration) (after X-rays radiographies), each animal hindpaw (arthritic and non arthritic rats) was weighed and was collected in a labelled polyethylene vial. Tissue samples were frozen in liquid nitrogen and stored at −80° C.
Preparation of Joint Homogenates: Frozen Hind Paws were Pulverized Using a Bio-Pulverizer. The powdered hind paws were then placed into a 50 ml conical centrifuge tube containing 3 ml PBS supplemented with 50 μl of anti-protease cocktail and homogenized on ice using Ultra-Turrax homogenizer (50% of the maximal speed). Homogenates were then centrifuged at 2000×g for 15 minutes at 4° C. and supernatants were filtered through 0.2 μm Sartorius filters, aliquoted and stored at −80° C. until use.
Cytokine levels measurement: Cytokine levels of TNF-α (Rat TNF-a ELISA kit, ref. RTA00, Batch 213718, R&D Systems, France), IL-1 Rat […] ELISA kit, ref. RLB00, Batch 212435, R&D Systems, France), IL-6 Rat IL-6 ELISA kit, ref. R6000, Batch 211773, 214008 and 214362, R&D Systems, France), and TGF-β1 Human TGF-β1 ELISA kit, ref. DB100, Batch 212258 and 213610, R&D Systems, France) were determined in duplicate, according to the manufacturer's procedure. Aliquots of hind paw homogenates were stored at −80° C.
as §1

[4] = E3 1 mg/kg or 911 10 mg/kg i.v. D14+D19, indomethacin 3 mg/kg/day p.o. 10 days, D24

Molecule: COc1ccc2c(c1)c(CC(=O)O)c(C)n2C(=O)c1ccc(Cl)cc1 [Indomethacin, reference compound]
- change of paw volume compared to vehicle-treated arthritic group ([1]; D24): about −0.75 mL
- paw volume (mean of right and left hindpaw) ([1]; D14 (before dosing)): 2.08 ± 0.06 mL
- paw volume (mean of right and left hindpaw) [1, 4]: 1.59 ± 0.03 mL
- effect on blood parameters compared to vehicle-treated arthritic group [2]: did not affect the blood parameters
- Hematocrit [2]: 35.0 ± 1.5%
- Hemoglobin [2]: 11.8 ± 0.6 g/dL
- Platelets [2]: 705 ± 111 10^3/mm^3
- Red blood cells [2]: 6.93 ± 0.31 10^6/mm^3
- White blood cells [2]: 21.7 ± 2.5 10^3/mm^3
- left paw IL-1β level [3]: 4029.1 ± 449.9 pg/mL
- left paw IL-6 level [3]: 249.7 ± 60.4 pg/mL
- left paw TGF-β1 level [3]: 7708.2 ± 293.9 pg/mL
- left paw TNF-α level [3]: 29.9 ± 3.6 pg/mL
- right paw IL-1β level [3]: 3884.4 ± 534.4 pg/mL
- right paw IL-6 level [3]: 295.9 ± 47.8 pg/mL
- right paw TGF-β1 level [3]: 7057.4 ± 335.6 pg/mL
- right paw TNF-α level [3]: 30.6 ± 5.7 pg/mL
- decrease of TGF-β1 level in right paw compared to vehicle-treated arthritic group ([3]; indomethacin 3 mg/kg/day p.o. 10 days): about 1.3 times

B1: E3: humanized, affinity matured anti-NGF antagonist antibody; variable regions SEQ ID NO:1 and 2; human IgG2a (A330P331 to S330S331), kappa (antibody, V domains shown)
VH: QVQLQESGPGLVKPSETLSLTCTVSGFSLIGYDLNWIRQPPGKGLEWIGIIWGDGTTDYNSAVKSRVTISKDTSKNQFSLKLSSVTAADTAVYYCARGGYWYATSYYFDYWGQGTLVTVS
VL: DIQMTQSPSSLSASVGDRVTITCRASQSISNNLNWYQQKPGKAPKLLIYYTSRFHSGVPSRFSGSGSGTDFTFTISSLQPEDIATYYCQQEHTLPYTFGQGTKLEIKRT
modifications: human IgG2a constant (A330S/P331S) and kappa constant missing
- change of paw volume compared to vehicle-treated arthritic group ([1]; D24): about 0.37 mL
- paw volume (mean of right and left hindpaw) ([1]; D14 (before dosing)): 2.06 ± 0.03 mL
- paw volume (mean of right and left hindpaw) [1, 4]: 2.71 ± 0.09 mL
- effect on blood parameters compared to vehicle-treated arthritic group [2]: did not affect the blood parameters
- Hematocrit [2]: 38.5 ± 1.0%
- Hemoglobin [2]: 12.9 ± 0.3 g/dL
- Platelets [2]: 827 ± 77 10^3/mm^3
- Red blood cells [2]: 7.74 ± 0.17 10^6/mm^3
- White blood cells [2]: 19.1 ± 1.2 10^3/mm^3
- effect on IL-6, IL-1β, TNF-α or TGF-β1 levels in both paws vs vehicle-treated arthritic group ([3]; 1 mg/kg i.v. on D14 and D19): did not affect
- left paw IL-1β level [3]: 5060.0 ± 473.5 pg/mL
- left paw IL-6 level [3]: 234.4 ± 35.2 pg/mL
- left paw TGF-β1 level [3]: 9796.7 ± 491.2 pg/mL
- left paw TNF-α level [3]: 23.6 ± 2.5 pg/mL
- right paw IL-1β level [3]: 4853.5 ± 605.0 pg/mL
- right paw IL-6 level [3]: 214.6 ± 47.2 pg/mL
- right paw TGF-β1 level [3]: 9362.7 ± 423.4 pg/mL
- right paw TNF-α level [3]: 21.5 ± 2.5 pg/mL
